Structures are written as SMILES.

D(3) dopamine receptor, sequence (P35462 whole entry): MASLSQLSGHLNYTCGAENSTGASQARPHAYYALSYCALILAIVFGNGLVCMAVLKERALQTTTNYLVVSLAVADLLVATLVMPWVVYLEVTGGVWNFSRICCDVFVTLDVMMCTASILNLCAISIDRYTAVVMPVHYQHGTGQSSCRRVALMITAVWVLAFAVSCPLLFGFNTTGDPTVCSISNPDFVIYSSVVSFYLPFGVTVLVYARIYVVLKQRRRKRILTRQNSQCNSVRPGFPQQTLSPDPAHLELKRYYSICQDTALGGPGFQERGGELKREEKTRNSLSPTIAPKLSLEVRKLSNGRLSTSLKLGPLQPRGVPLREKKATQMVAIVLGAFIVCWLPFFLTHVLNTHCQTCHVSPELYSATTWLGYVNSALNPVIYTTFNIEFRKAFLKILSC

In the first test the target is T1, Alpha-1D adrenergic receptor (Homo sapiens, UniProt P25100). Further: in other assays of this panel Not Active means under 50% inhibition at 10 µM.
T1 sequence (P25100 whole entry): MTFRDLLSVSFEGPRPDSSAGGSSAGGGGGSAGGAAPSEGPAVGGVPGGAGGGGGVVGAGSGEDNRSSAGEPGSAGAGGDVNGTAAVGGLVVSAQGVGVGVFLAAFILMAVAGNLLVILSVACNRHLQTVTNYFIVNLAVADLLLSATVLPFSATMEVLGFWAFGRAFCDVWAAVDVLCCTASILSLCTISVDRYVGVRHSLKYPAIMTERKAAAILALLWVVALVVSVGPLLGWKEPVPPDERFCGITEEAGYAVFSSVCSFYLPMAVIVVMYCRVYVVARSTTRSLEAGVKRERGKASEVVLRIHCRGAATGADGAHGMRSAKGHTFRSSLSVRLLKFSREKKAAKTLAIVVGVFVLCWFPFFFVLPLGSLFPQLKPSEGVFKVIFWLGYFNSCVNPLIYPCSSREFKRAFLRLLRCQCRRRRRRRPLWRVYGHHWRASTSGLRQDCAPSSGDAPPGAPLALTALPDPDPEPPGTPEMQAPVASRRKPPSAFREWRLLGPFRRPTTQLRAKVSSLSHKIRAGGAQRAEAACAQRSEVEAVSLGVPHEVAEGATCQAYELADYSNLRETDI
Assay: not given
It counts as cell membranes, HEK293, Membrane. The following applies: hek293.
Regarding `COc1c(N2CCNC(C)C2)c(F)cc2c(=O)c(C(=O)O)cn(C3CC3)c12` (stereo unspecified) [GATIFLOXACIN], the IC50 result is “Not Active”.
On to `CC(=O)CCCCn1c(=O)c2c(ncn2C)n(C)c1=O` [PENTOXIFYLLINE], for which the IC50 entry is listed as “Not Active”.
Consider `O=C1CN=C(c2ccccc2)c2cc([N+](=O)[O-])ccc2N1` [NITRAZEPAM], for which the IC50 entry is recorded as “Not Active”.

System in another test: not listed separately
Kind of test: DRUGMATRIX: Calcium Channel Type L, Phenylalkylamine radioligand binding (ligand: [3H] (-)-Desmethoxyverapamil (D-888)). It counts as cell membranes, Rattus norvegicus, Wistar, Brain, Membrane. The following applies: Not Active = under 50% inhibition at 10 µM.
Turning to `COc1c(N2CCNC(C)C2)c(F)cc2c(=O)c(C(=O)O)cn(C3CC3)c12` (stereo unspecified) [GATIFLOXACIN], the IC50 result is recorded as “Not Active” and the Ki entry is “Not Active”.
As for `CC(=O)CCCCn1c(=O)c2c(ncn2C)n(C)c1=O` [PENTOXIFYLLINE], the IC50 result is “Not Active” and the Ki entry is listed as “Not Active”.
As for `O=C1CN=C(c2ccccc2)c2cc([N+](=O)[O-])ccc2N1` [NITRAZEPAM], the IC50 entry was “Not Active” and the Ki result is recorded as “Not Active”.

The target in another test is Prostaglandin G/H synthase 1 (Homo sapiens, UniProt P23219). Kind of test: biochemical. It counts as tissue-based, Platelet. Conditions: platelet.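 Further: inhibition of COX-1 enzyme activity, with arachidonic acid supplied as substrate; in other assays of this panel Not Active means under 50% inhibition at 10 µM.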
Prostaglandin G/H synthase 1, sequence (P23219 whole entry): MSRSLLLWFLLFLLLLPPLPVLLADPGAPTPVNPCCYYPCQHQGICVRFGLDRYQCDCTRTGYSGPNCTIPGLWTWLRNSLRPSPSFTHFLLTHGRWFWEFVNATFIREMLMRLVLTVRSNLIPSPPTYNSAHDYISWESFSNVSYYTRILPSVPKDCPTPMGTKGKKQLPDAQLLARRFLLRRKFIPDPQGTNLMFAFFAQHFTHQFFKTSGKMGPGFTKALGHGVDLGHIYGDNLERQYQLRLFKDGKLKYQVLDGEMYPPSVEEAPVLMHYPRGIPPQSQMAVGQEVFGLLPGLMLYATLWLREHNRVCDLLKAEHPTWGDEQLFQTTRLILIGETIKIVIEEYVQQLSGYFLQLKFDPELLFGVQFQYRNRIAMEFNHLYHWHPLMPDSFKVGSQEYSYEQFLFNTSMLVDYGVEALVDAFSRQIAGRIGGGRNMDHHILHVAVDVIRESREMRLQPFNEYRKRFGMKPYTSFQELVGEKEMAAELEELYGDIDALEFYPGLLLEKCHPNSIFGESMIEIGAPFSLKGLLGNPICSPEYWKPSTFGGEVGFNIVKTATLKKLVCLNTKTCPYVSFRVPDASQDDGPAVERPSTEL
Take `COc1c(N2CCNC(C)C2)c(F)cc2c(=O)c(C(=O)O)cn(C3CC3)c12` (stereo unspecified) [GATIFLOXACIN]: the IC50 entry was “Not Active”.
`CC(=O)CCCCn1c(=O)c2c(ncn2C)n(C)c1=O` [PENTOXIFYLLINE]: the IC50 entry was “Not Active”.
Same read-out and setting: the value for `O=C1CN=C(c2ccccc2)c2cc([N+](=O)[O-])ccc2N1` [NITRAZEPAM] was “Not Active”.

A further test concerns the target D(3) dopamine receptor (Homo sapiens, UniProt P35462). Briefly: DRUGMATRIX: Dopamine D3 radioligand binding (ligand: [3H] Spiperone). It counts as cell membranes, CHO, Membrane. Conditions: cho.
Turning to `COc1c(N2CCNC(C)C2)c(F)cc2c(=O)c(C(=O)O)cn(C3CC3)c12` (stereo unspecified) [GATIFLOXACIN], the IC50 entry is recorded as “Not Active”.
Consider `CC(=O)CCCCn1c(=O)c2c(ncn2C)n(C)c1=O` [PENTOXIFYLLINE], for which the IC50 entry is listed as “Not Active”.
`O=C1CN=C(c2ccccc2)c2cc([N+](=O)[O-])ccc2N1` [NITRAZEPAM]: the IC50 result is given as “Not Active”.

System in another test: not listed separately
Kind of test: DRUGMATRIX: Glutamate, NMDA, Agonism radioligand binding (ligand: [3H] CGP-39653). It counts as cell membranes, Rattus norvegicus, Wistar, Cerebral cortex, Membrane. Conditions: Not Active = under 50% inhibition at 10 µM.
Take `COc1c(N2CCNC(C)C2)c(F)cc2c(=O)c(C(=O)O)cn(C3CC3)c12` (stereo unspecified) [GATIFLOXACIN]: the IC50 entry is on record as “Not Active” and the Ki entry is “Not Active”.
Take `CC(=O)CCCCn1c(=O)c2c(ncn2C)n(C)c1=O` [PENTOXIFYLLINE]: the IC50 result is recorded as “Not Active” and the Ki entry was “Not Active”.
Consider `O=C1CN=C(c2ccccc2)c2cc([N+](=O)[O-])ccc2N1` [NITRAZEPAM], for which the IC50 entry was “Not Active” and the Ki entry is recorded as “Not Active”.

System in a further test: not listed separately
Kind of test: DRUGMATRIX: Glutamate, NMDA, Phencyclidine radioligand binding (ligand: [3H] TCP). It counts as cell membranes, Rattus norvegicus, Wistar, Cerebral cortex, Membrane. Conditions: Not Active = under 50% inhibition at 10 µM.
`COc1c(N2CCNC(C)C2)c(F)cc2c(=O)c(C(=O)O)cn(C3CC3)c12` (stereo unspecified) [GATIFLOXACIN]: the IC50 result is “Not Active” and the Ki entry was “Not Active”.
In the case of `CC(=O)CCCCn1c(=O)c2c(ncn2C)n(C)c1=O` [PENTOXIFYLLINE], the IC50 result is “Not Active” and the Ki entry is “Not Active”.
Consider `O=C1CN=C(c2ccccc2)c2cc([N+](=O)[O-])ccc2N1` [NITRAZEPAM], for which the IC50 entry was “Not Active” and the Ki result was “Not Active”.

Another test concerns the target T2, 3-hydroxy-3-methylglutaryl-coenzyme A reductase (Homo sapiens, UniProt P04035).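 Further: enzyme inhibition assay of HMG-CoA reductase using radiolabeled [14C]HMG-CoA as substrate; in other assays of this panel Not Active means under 50% inhibition at 10 µM.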
T2 sequence (P04035 whole entry): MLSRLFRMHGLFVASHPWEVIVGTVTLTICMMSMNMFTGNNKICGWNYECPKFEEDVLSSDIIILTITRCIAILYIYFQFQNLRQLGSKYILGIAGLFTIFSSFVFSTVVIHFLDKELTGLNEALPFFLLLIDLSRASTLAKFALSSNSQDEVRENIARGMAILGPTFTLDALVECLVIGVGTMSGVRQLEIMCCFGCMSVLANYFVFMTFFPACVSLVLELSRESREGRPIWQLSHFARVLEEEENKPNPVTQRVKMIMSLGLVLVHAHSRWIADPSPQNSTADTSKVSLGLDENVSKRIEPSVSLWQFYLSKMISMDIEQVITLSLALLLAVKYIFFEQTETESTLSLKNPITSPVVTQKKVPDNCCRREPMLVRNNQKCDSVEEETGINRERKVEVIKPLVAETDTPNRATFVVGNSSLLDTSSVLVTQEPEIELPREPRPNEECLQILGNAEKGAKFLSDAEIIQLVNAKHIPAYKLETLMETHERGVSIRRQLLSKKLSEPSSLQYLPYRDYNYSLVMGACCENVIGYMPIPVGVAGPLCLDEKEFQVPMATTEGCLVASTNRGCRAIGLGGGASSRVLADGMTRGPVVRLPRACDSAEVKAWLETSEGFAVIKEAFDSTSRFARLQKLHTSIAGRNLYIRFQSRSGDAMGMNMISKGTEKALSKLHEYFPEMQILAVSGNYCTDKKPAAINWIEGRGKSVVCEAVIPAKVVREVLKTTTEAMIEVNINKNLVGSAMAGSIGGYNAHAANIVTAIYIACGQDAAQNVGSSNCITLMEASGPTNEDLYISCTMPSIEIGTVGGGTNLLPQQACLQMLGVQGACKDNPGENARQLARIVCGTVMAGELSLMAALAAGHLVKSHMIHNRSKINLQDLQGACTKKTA
Assay: not given
The arrangement: species or system Escherichia coli.
Conditions: not given
Take `COc1c(N2CCNC(C)C2)c(F)cc2c(=O)c(C(=O)O)cn(C3CC3)c12` (stereo unspecified) [GATIFLOXACIN]: the IC50 entry is “Not Active”.
Still for that read-out and setting: in the case of `CC(=O)CCCCn1c(=O)c2c(ncn2C)n(C)c1=O` [PENTOXIFYLLINE] it was “Not Active”; in that of `O=C1CN=C(c2ccccc2)c2cc([N+](=O)[O-])ccc2N1` [NITRAZEPAM], “Not Active”.

Another test deals with Melanocortin receptor 3 (Homo sapiens, UniProt P41968).
Melanocortin receptor 3, sequence (P41968 whole entry): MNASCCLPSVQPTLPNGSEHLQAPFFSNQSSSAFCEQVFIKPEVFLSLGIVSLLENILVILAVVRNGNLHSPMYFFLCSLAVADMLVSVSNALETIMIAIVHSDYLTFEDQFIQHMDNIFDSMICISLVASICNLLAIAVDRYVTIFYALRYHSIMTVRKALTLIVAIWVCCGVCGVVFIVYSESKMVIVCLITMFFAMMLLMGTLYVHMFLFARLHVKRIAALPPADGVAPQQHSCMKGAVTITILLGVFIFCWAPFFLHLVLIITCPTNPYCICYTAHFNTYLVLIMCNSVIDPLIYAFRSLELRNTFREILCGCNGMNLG
Assay: not given
The class given is cell membranes, Membrane. Conditions: hek293.
For the compound `COc1c(N2CCNC(C)C2)c(F)cc2c(=O)c(C(=O)O)cn(C3CC3)c12` (stereo unspecified) [GATIFLOXACIN], the IC50 result is “Not Active”.
As to `CC(=O)CCCCn1c(=O)c2c(ncn2C)n(C)c1=O` [PENTOXIFYLLINE], the IC50 result is listed as “Not Active”.
Regarding `O=C1CN=C(c2ccccc2)c2cc([N+](=O)[O-])ccc2N1` [NITRAZEPAM], the IC50 entry is on record as “Not Active”.

System in another test: not listed separately
Briefly: DRUGMATRIX: Phosphodiesterase PDE4 enzyme inhibition (substrate: [3H]cAMP + cAMP). The following applies: u-937; Not Active = under 50% inhibition at 10 µM.
Take `COc1c(N2CCNC(C)C2)c(F)cc2c(=O)c(C(=O)O)cn(C3CC3)c12` (stereo unspecified) [GATIFLOXACIN]: the IC50 result was “Not Active” and the Ki entry is on record as “Not Active”.
On to `CC(=O)CCCCn1c(=O)c2c(ncn2C)n(C)c1=O` [PENTOXIFYLLINE], for which the IC50 result was “Not Active” and the Ki entry is on record as “Not Active”.
Take `O=C1CN=C(c2ccccc2)c2cc([N+](=O)[O-])ccc2N1` [NITRAZEPAM]: the IC50 result is on record as “Not Active” and the Ki entry was “Not Active”.

The target in a further test is Platelet-activating factor receptor (Homo sapiens, UniProt P25105). Briefly: biochemical. The class given is tissue-based. The following applies: platelet. Further: in other assays of this panel Not Active means under 50% inhibition at 10 µM.
Platelet-activating factor receptor, sequence (P25105 whole entry): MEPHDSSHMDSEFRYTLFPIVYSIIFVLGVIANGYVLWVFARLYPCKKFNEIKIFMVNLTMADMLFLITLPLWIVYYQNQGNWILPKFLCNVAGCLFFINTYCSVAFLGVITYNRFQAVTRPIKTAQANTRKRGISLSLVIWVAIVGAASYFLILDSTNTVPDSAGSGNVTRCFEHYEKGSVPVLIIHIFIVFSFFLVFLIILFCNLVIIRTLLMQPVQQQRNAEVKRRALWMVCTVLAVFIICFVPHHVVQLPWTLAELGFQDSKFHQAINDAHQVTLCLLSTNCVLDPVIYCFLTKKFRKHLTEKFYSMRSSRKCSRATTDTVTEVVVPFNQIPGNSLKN
On to `COc1c(N2CCNC(C)C2)c(F)cc2c(=O)c(C(=O)O)cn(C3CC3)c12` (stereo unspecified) [GATIFLOXACIN], for which the IC50 entry was “Not Active”.
`CC(=O)CCCCn1c(=O)c2c(ncn2C)n(C)c1=O` [PENTOXIFYLLINE]: the IC50 entry is “Not Active”.
As for `O=C1CN=C(c2ccccc2)c2cc([N+](=O)[O-])ccc2N1` [NITRAZEPAM], the IC50 entry is “Not Active”.

In another test the target is T3, Interstitial collagenase (Homo sapiens, UniProt P03956).
T3 sequence (P03956 whole entry): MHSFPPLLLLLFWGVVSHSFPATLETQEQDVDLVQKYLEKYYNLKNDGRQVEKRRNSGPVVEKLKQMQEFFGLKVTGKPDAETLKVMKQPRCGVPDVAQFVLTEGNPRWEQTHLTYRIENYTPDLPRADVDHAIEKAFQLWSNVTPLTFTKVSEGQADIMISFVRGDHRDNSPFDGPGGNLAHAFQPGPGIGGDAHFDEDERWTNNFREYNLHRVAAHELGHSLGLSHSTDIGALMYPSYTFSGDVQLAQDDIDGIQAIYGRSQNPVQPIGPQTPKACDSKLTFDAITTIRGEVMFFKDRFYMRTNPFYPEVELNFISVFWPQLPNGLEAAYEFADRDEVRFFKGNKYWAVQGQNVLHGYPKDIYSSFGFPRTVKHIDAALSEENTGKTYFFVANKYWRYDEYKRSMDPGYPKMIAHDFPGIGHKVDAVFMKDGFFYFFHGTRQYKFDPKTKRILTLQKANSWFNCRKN
Assay: not given
Conditions: not given
The class given is tissue-based, Rheumatoid synovial fibroblasts.
On to `COc1c(N2CCNC(C)C2)c(F)cc2c(=O)c(C(=O)O)cn(C3CC3)c12` (stereo unspecified) [GATIFLOXACIN], for which the IC50 entry is listed as “Not Active”.
Turning to `CC(=O)CCCCn1c(=O)c2c(ncn2C)n(C)c1=O` [PENTOXIFYLLINE], the IC50 result is given as “Not Active”.
As to `O=C1CN=C(c2ccccc2)c2cc([N+](=O)[O-])ccc2N1` [NITRAZEPAM], the IC50 result was “Not Active”.

For a further test, the target named is Mitogen-activated protein kinase 1 (Homo sapiens, UniProt P28482). Kind of test: DRUGMATRIX: Protein Serine/Threonine Kinase, ERK2 enzyme inhibition (substrate: Myelin Basic Protein). Conditions: Not Active = under 50% inhibition at 10 µM. Also on record: species or system Escherichia coli.
Mitogen-activated protein kinase 1, sequence (P28482 whole entry): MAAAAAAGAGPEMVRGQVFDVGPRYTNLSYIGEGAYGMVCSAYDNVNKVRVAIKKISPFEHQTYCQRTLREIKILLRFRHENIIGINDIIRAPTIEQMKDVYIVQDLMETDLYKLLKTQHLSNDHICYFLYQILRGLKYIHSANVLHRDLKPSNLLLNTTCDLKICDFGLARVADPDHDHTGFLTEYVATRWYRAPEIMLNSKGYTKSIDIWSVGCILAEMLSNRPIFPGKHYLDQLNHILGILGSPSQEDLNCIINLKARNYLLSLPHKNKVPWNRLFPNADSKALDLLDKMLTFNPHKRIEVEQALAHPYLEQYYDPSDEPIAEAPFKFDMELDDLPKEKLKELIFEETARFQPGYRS
On to `COc1c(N2CCNC(C)C2)c(F)cc2c(=O)c(C(=O)O)cn(C3CC3)c12` (stereo unspecified) [GATIFLOXACIN], for which the IC50 entry was “Not Active”.
The same measure, in the same setting: the value for `CC(=O)CCCCn1c(=O)c2c(ncn2C)n(C)c1=O` [PENTOXIFYLLINE] was “Not Active”; that for `O=C1CN=C(c2ccccc2)c2cc([N+](=O)[O-])ccc2N1` [NITRAZEPAM] was “Not Active”.

Another test addresses T4, Adenosine receptor A1 (Homo sapiens, UniProt P30542).
T4 sequence (P30542 whole entry): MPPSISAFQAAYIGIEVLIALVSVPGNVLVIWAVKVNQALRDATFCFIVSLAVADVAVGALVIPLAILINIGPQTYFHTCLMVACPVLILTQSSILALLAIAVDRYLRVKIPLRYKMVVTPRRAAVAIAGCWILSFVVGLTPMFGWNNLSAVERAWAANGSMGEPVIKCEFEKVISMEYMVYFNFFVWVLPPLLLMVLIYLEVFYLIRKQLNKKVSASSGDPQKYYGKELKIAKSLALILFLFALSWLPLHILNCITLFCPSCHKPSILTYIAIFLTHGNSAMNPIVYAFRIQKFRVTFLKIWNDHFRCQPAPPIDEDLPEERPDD
Assay: not given
The class given is cell membranes, CHO, Membrane. The following applies: cho.
With `COc1c(N2CCNC(C)C2)c(F)cc2c(=O)c(C(=O)O)cn(C3CC3)c12` (stereo unspecified) [GATIFLOXACIN], the IC50 result was “Not Active”.
As to `CC(=O)CCCCn1c(=O)c2c(ncn2C)n(C)c1=O` [PENTOXIFYLLINE], the IC50 entry is “Not Active”.
`O=C1CN=C(c2ccccc2)c2cc([N+](=O)[O-])ccc2N1` [NITRAZEPAM]: the IC50 entry is given as “Not Active”.

For the origin of these results see ChEMBL document CHEMBL1909046, “DrugMatrix in vitro pharmacology data”.
